# Read-outs that look alike come from different tables or passages of the source.
# Experiments:
# [1] = tested on: Phytophthora capsici (Pc); experiment: Growth inhibition assay of fungal pathogens, Pc; type: cell-based; details: 48 h
# Outline: (§1)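 Read-out: OD600 plus visual rating at 24 and 48 h, blank (media + 2% DMSO) subtracted. Percent inhibition was derived at 48 h versus the 2% DMSO control. Spores were grown in 17% V8 broth with compound at 50/10/2 or 2/0.4/0.08 ppm final.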
# Botrtyis cinerea (Bc) = experiment: Growth inhibition assay of fungal pathogens, Bc; type: cell-based; details: 48 h
# Outline: as §1
# Diplodia maydis (Dm) = experiment: Growth inhibition assay of fungal pathogens, Dm; type: cell-based; details: Stenocarpella maydis, 48 h
# Outline: as §1
# [2] = tested on: Collectotrichum graminicola (Cg); experiment: Growth inhibition assay of fungal pathogens, Cg; type: cell-based; details: 48 h
# Outline: as §1
# Septoria tritici (St) = experiment: Growth inhibition assay of fungal pathogens, St; type: cell-based; details: Zymoseptoria tritici, 48 h
# Outline: as §1
# fungal (fACC2) = fungal (fACC2) (UniProt Q00955); details: read-out: fACC2 (in vitro ACC2 Inhibition Assay, IC50), ADP-Glo, 5 nM ACC2, 20 μM ATP, 20 μM acetyl-CoA
# Sequence of fungal (fACC2) (Q00955 whole entry): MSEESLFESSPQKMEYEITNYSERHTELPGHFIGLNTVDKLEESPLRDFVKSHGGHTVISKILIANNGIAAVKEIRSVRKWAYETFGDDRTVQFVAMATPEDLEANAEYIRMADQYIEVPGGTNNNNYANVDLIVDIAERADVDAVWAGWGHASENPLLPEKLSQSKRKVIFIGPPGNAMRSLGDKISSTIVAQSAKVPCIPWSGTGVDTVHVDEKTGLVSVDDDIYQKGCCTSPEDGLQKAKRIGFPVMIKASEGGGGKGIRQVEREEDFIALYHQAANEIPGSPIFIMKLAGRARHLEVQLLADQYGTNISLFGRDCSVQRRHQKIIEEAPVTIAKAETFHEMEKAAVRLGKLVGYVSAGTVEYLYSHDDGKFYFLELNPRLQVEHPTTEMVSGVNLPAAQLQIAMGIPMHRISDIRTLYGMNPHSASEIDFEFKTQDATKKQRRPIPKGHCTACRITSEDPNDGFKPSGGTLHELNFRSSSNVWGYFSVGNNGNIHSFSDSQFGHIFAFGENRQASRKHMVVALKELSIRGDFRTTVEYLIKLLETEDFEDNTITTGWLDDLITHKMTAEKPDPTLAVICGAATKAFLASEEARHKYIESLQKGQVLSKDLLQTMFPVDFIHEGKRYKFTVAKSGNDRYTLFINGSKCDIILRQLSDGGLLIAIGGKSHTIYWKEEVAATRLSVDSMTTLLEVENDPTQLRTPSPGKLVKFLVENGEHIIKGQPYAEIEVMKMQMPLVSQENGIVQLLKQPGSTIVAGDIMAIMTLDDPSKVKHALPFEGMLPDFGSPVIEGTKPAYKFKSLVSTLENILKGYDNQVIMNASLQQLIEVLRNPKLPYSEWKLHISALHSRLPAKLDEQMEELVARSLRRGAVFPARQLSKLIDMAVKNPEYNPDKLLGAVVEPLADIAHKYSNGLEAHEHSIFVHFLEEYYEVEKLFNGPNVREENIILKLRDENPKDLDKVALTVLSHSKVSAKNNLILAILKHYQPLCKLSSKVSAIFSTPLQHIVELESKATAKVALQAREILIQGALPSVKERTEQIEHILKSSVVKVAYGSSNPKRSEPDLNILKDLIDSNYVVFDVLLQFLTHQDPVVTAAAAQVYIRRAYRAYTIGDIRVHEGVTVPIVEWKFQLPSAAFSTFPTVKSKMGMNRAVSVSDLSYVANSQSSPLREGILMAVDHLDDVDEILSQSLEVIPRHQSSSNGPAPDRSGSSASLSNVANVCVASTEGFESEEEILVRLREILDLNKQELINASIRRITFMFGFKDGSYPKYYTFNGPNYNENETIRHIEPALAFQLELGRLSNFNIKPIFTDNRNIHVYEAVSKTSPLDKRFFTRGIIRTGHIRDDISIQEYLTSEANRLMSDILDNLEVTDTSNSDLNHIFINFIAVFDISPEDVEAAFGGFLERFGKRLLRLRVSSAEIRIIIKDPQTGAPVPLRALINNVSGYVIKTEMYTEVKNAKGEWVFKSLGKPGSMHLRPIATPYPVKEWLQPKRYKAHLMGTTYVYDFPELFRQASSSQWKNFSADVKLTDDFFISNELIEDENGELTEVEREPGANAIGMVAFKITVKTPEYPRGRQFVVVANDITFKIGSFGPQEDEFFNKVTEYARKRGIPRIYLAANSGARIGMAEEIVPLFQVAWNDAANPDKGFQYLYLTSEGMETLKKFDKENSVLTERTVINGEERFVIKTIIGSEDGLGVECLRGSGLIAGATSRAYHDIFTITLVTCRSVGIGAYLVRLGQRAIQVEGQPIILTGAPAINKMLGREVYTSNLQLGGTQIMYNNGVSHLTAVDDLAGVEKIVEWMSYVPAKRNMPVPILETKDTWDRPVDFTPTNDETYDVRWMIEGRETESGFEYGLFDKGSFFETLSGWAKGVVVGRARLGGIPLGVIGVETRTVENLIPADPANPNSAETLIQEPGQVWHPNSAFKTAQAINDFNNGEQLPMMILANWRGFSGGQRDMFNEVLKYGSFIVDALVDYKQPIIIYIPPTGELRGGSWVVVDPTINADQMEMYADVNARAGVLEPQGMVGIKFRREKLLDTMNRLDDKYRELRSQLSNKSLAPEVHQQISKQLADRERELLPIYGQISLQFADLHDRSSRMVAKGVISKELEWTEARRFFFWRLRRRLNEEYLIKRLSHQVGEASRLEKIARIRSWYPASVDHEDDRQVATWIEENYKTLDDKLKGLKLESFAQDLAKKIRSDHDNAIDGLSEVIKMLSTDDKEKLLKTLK
# C. parapsilosis = experiment: Antifungal Activity Assay (broth microtiter MIC), C. parapsilosis; type: cell-based, Candida parapsilosis; details: Lodderomyces parapsilosis, ATCC22019, 48 h
# Outline: (§2)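 CLSI M27-A3 microdilution; RPMI 1640+MOPS; 2.5×10^3 CFU/mL final inoculum; cultures from Sabouraud dextrose agar, 35° C overnight; compound working solution 128 μg/mL from 1 mg/mL DMSO stock; visual MIC at 48 h vs growth control.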
# [3] = tested on: Fusarium virguliforme (Fv); experiment: Growth inhibition assay of fungal pathogens, Fv; type: cell-based; details: 48 h
# Outline: as §1
# C. albicans = experiment: Antifungal Activity Assay (broth microtiter MIC), C. albicans; type: cell-based, Candida albicans; details: Candida albicans, ATCC90028, 48 h
# Outline: as §2
# C. krusei = experiment: Antifungal Activity Assay (broth microtiter MIC), C. krusei; type: cell-based, Candida krusei; details: Pichia kudriavzevii, ATCC6258, 48 h
# Outline: as §2
# [4] = tested on: Fusarium moniliforme (Fm); experiment: Growth inhibition assay of fungal pathogens, Fm; type: cell-based; details: for IC90: Fusarium verticillioides, 48 h, read-out: Concentration at 90% Inhibition Fm
# Outline: as §1
# [5] = Fusarium moniliforme, growth inhibition at 48 hours vs 2% DMSO control
smiles,measurement,setting,value
"COc1ccc(F)cc1[C@H](Cn1c(=O)n(C(C)(C)C(=O)N2CCCC2)c(=O)c2c(C)c(-n3nccn3)sc21)OCCN(C)C [Compound I-75, (R)-1-(2-(2-(dimethylamino)ethoxy)-2-(5-fluoro-2-methoxyphenyl)ethyl)-5-methyl-3-(2-methyl-1-oxo-1-(pyrrolidin-1-yl)propan-2-yl)-6-(2H-1,2,3-triazol-2-yl)thieno[2,3-d]pyrimidine-2,4(1H,3H)-dione]",IC90,"[1]; growth inhibition at 48 hours vs 2% DMSO control, read-out: Concentration at 90% Inhibition Pc",> 50 µg/mL
same,IC90,"[1]; growth inhibition vs 2% DMSO control at 48 hours, read-out: Concentration at 90% Inhibition Pc",> 50 µg/mL
same,IC90,"Botrtyis cinerea (Bc); Botrtyis cinerea, growth inhibition at 48 hours vs 2% DMSO control, read-out: Concentration at 90% Inhibition Bc",> 50 µg/mL
same,IC90,"Botrtyis cinerea (Bc); Botrtyis cinerea, growth inhibition vs 2% DMSO control at 48 hours, read-out: Concentration at 90% Inhibition Bc",> 50 µg/mL
same,IC90,"Diplodia maydis (Dm); Diplodia maydis, growth inhibition at 48 hours vs 2% DMSO control, read-out: Concentration at 90% Inhibition Dm",> 50 µg/mL
same,IC90,"Diplodia maydis (Dm); Diplodia maydis, growth inhibition vs 2% DMSO control at 48 hours, read-out: Concentration at 90% Inhibition Dm",> 50 µg/mL
same,IC90,"[2]; Collectotrichum graminicola, growth inhibition at 48 hours vs 2% DMSO control, read-out: Concentration at 90% Inhibition Cg",> 50 µg/mL
same,IC90,"[2]; Collectotrichum graminicola, growth inhibition vs 2% DMSO control at 48 hours, read-out: Concentration at 90% Inhibition Cg",> 50 µg/mL
same,IC90,"Septoria tritici (St); Septoria tritici, growth inhibition at 48 hours vs 2% DMSO control, read-out: Concentration at 90% Inhibition St",> 50 µg/mL
same,IC90,"Septoria tritici (St); Septoria tritici, growth inhibition vs 2% DMSO control at 48 hours, read-out: Concentration at 90% Inhibition St",> 50 µg/mL
same,IC50,fungal (fACC2); Table 2a,1 to 5 nM
same,IC50,"fungal (fACC2); Table 2b, additional results",1 to 5 nM
same,MIC,"C. parapsilosis; Table 3a, ATCC 22019, 3 replicates, MIC recorded at 48 h, read-out: MIC, C. parapsilosis ATCC 22019",2.1 to 4 µg/mL
same,MIC,"C. parapsilosis; Table 3b (additional results), ATCC 22019, 3 replicates, MIC recorded at 48 h, read-out: MIC, C. parapsilosis ATCC 22019",1.01 to 2 µg/mL
same,IC90,"[3]; growth inhibition at 48 hours vs 2% DMSO control, read-out: Concentration at 90% Inhibition Fv",> 50 µg/mL
same,IC90,"[3]; growth inhibition vs 2% DMSO control at 48 hours, read-out: Concentration at 90% Inhibition Fv",> 50 µg/mL
same,MIC,"C. albicans; Table 3a, ATCC 90028, 3 replicates, MIC recorded at 48 h, read-out: MIC, C. albicans ATCC 90028",2.1 to 4 µg/mL
same,MIC,"C. albicans; Table 3b (additional results), ATCC 90028, 3 replicates, MIC recorded at 48 h, read-out: MIC, C. albicans ATCC 90028",2.01 to 4 µg/mL
same,MIC,"C. krusei; Table 3a, ATCC 6258, 3 replicates, MIC recorded at 48 h, read-out: MIC, C. krusei ATCC 6258",2.1 to 4 µg/mL
same,MIC,"C. krusei; Table 3b (additional results), ATCC 6258, 3 replicates, MIC recorded at 48 h, read-out: MIC, C. krusei ATCC 6258",2.01 to 4 µg/mL
same,IC90,[4]; [5],> 50 µg/mL
same,IC90,"[4]; Fusarium moniliforme, growth inhibition vs 2% DMSO control at 48 hours",> 50 µg/mL
"COc1ccc(F)cc1[C@H](Cn1c(=O)n(C(C)(C)C(=O)NC(C)C)c(=O)c2c(C)c(-n3nccn3)sc21)OCCN(C)C [Compound I-76, (R)-2-(1-(2-(2-(dimethylamino)ethoxy)-2-(5-fluoro-2-methoxyphenyl)ethyl)-5-methyl-2,4-dioxo-6-(2H-1,2,3-triazol-2-yl)-1,4-dihydro-thieno[2,3-d]pyrimidin-3(2H)-yl)-N-isopropyl-2-methylpropanamide]",IC90,"[1]; read-out: Concentration at 90% Inhibition Pc, Phytophthora capsici, growth inhibition at 48 hours vs 2% DMSO control",> 50 µg/mL
same,IC90,"[1]; read-out: Concentration at 90% Inhibition Pc, Phytophthora capsici, growth inhibition vs 2% DMSO control at 48 hours",> 50 µg/mL
same,IC90,"Botrtyis cinerea (Bc); read-out: Concentration at 90% Inhibition Bc, Botrtyis cinerea, growth inhibition at 48 hours vs 2% DMSO control",> 50 µg/mL
same,IC90,"Botrtyis cinerea (Bc); read-out: Concentration at 90% Inhibition Bc, Botrtyis cinerea, growth inhibition vs 2% DMSO control at 48 hours",> 50 µg/mL
same,IC90,"Diplodia maydis (Dm); read-out: Concentration at 90% Inhibition Dm, Diplodia maydis, growth inhibition at 48 hours vs 2% DMSO control",> 50 µg/mL
same,IC90,"Diplodia maydis (Dm); read-out: Concentration at 90% Inhibition Dm, Diplodia maydis, growth inhibition vs 2% DMSO control at 48 hours",> 50 µg/mL
same,IC90,"[2]; read-out: Concentration at 90% Inhibition Cg, Collectotrichum graminicola, growth inhibition at 48 hours vs 2% DMSO control",> 50 µg/mL
same,IC90,"[2]; read-out: Concentration at 90% Inhibition Cg, Collectotrichum graminicola, growth inhibition vs 2% DMSO control at 48 hours",> 50 µg/mL
same,IC90,"Septoria tritici (St); read-out: Concentration at 90% Inhibition St, Septoria tritici, growth inhibition at 48 hours vs 2% DMSO control",> 50 µg/mL
same,IC90,"Septoria tritici (St); read-out: Concentration at 90% Inhibition St, Septoria tritici, growth inhibition vs 2% DMSO control at 48 hours",> 50 µg/mL
same,IC50,fungal (fACC2); Table 2a,1 to 5 nM
same,IC50,"fungal (fACC2); Table 2b, additional results",1 to 5 nM
same,MIC,"C. parapsilosis; read-out: MIC, C. parapsilosis ATCC 22019, Table 3a, 3 replicates, MIC recorded at 48 h",2.1 to 4 µg/mL
same,MIC,"C. parapsilosis; read-out: MIC, C. parapsilosis ATCC 22019, Table 3b (additional results), 3 replicates, MIC recorded at 48 h",0.25 to 1 µg/mL
same,IC90,"[3]; read-out: Concentration at 90% Inhibition Fv, Fusarium virguliforme, growth inhibition at 48 hours vs 2% DMSO control",> 50 µg/mL
same,IC90,"[3]; read-out: Concentration at 90% Inhibition Fv, Fusarium virguliforme, growth inhibition vs 2% DMSO control at 48 hours",> 50 µg/mL
same,MIC,"C. albicans; read-out: MIC, C. albicans ATCC 90028, Table 3a, 3 replicates, MIC recorded at 48 h",2.1 to 4 µg/mL
same,MIC,"C. albicans; read-out: MIC, C. albicans ATCC 90028, Table 3b (additional results), 3 replicates, MIC recorded at 48 h",1.01 to 2 µg/mL
same,MIC,"C. krusei; read-out: MIC, C. krusei ATCC 6258, Table 3a, 3 replicates, MIC recorded at 48 h",2.1 to 4 µg/mL
same,MIC,"C. krusei; read-out: MIC, C. krusei ATCC 6258, Table 3b (additional results), 3 replicates, MIC recorded at 48 h",0.25 to 1 µg/mL
same,Concentration at 90% Inhibition Fm,[4]; [5],D (compound concentration of >50 ppm at 90% inhibition of fungal pathogens)
same,IC90,[4],> 50 µg/mL
